The record followed here is patent US20240190872A1, “FABI INHIBITORS FOR GRAM-NEGATIVE PATHOGENS” (THE BOARD OF TRUSTEES OF THE UNIVERSITY OF ILLINOIS, priority 2021, published 2024).

One may read the inhibition as the change of the read-out against control, counted positive when it falls. A high value points to a strong effect. The term IC50 denotes the midpoint of a concentration-inhibition curve. Low values mean higher potency, high ones lower potency. As usually defined, the fraction unbound is free concentration divided by total concentration. Higher therefore signals much free substance.

The structures appear in SMILES notation. Converted amounts (≈) assume the structure as drawn. Like-named read-outs stand apart in the source and are kept apart here.

For one data set, the system named is S. aureus ATCC 29213. The data set is described as follows: Antimicrobial susceptibility test (MIC), micro-dilution broth. The note with it: Staphylococcus aureus, ATCC29213. In kind it is cell-based. Summed up: (§1)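 CLSI micro-dilution broth method in cation-adjusted Mueller-Hinton broth, in biological triplicate; human serum (pooled, filtered) was also used.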
A general note: Broth dilution looks for growth in wells or tubes with falling amounts of substance.

In a further data set the test system is E. coli ΔtolC (JW5503). It counts as cell-based. Summed up:
(§2)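 MICs by CLSI broth microdilution in cation-adjusted Mueller-Hinton broth, performed in biological triplicate. Strains: efflux-deficient E. coli ΔtolC (JW5503, KEIO collection) and K. pneumoniae BAA-2472 (ATCC).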

For the next data set, the system named is E. coli MG1655. The data set is described as follows: Antimicrobial susceptibility test (MIC). In kind it is cell-based. The note with it: Escherichia coli, MG1655. Summed up:
as §1

The next data set concerns K. pneumoniae BAA 2472. In words: microbe, parasite or virus in culture. In kind it is cell-based. The note with it: Klebsiella pneumoniae, BAA2472, read-out: MIC K. pneumoniae BAA 2472. Summed up: as §2
In a further data set the test system is A. baumannii AR 0033. In words: microbe, parasite or virus in culture. It counts as cell-based. The note with it: Acinetobacter baumannii, AR0033, read-out: MIC A. baumannii AR 0033. Summed up: (§3)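 CLSI micro-dilution broth method; cation-adjusted MHB; biological triplicate.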
The next data set deals with A. baumannii AR 0273. In words: microbe, parasite or virus in culture. The note with it: Acinetobacter baumannii, AR0273, read-out: MIC A. baumannii AR 0273. In kind it is cell-based. Summed up: as §3
The test system of the next data set is A. baumannii AR 0299. The data set is described as follows: microbe, parasite or virus in culture. It counts as cell-based. The note with it: Acinetobacter baumannii, AR0299, read-out: MIC A. baumannii AR 0299. Summed up: as §3
Another data set relates to A. baumannii AR 0313. In words: microbe, parasite or virus in culture. It counts as cell-based. The note with it: Acinetobacter baumannii, AR0313, read-out: MIC A. baumannii AR 0313. Summed up:
as §3

In another data set the test system is E. coli AR 0048. The data set is described as follows: microbe, parasite or virus in culture. In kind it is cell-based. The note with it: Escherichia coli, AR0048, read-out: MIC E. coli AR 0048. Summed up:
as §3

The next data set relates to E. coli AR 0085. In words: microbe, parasite or virus in culture. It counts as cell-based. The note with it: Escherichia coli, AR0085, read-out: MIC E. coli AR 0085. Summed up:
as §3

For the next data set, the system named is K. pneumoniae AR 0066. In words: microbe, parasite or virus in culture. It counts as cell-based. The note with it: Klebsiella pneumoniae, AR0066, read-out: MIC K. pneumoniae AR 0066. Summed up: as §3
In a further data set the test system is K. pneumoniae AR 0113. The data set is described as follows: microbe, parasite or virus in culture. In kind it is cell-based. The note with it: Klebsiella pneumoniae, AR0113, read-out: MIC K. pneumoniae AR 0113. Summed up: as §3
The next data set deals with K. pneumoniae AR 0560. In words: microbe, parasite or virus in culture. It counts as cell-based. The note with it: Klebsiella pneumoniae, AR0560, read-out: MIC K. pneumoniae AR 0560. Summed up: as §3
For another data set, the target named is A. baumannii FabI (Acinetobacter baumannii, UniProt D0CAD5). The data set is described as follows: biochemical. The procedure: (§4) Mode of Action. To probe the effects of varying ring systems and amine placement on FabI target engagement, the apparent inhibition constants (Ki^app) for select compounds were determined using purified FabI. The goal of these studies was two-fold, to comparatively assess fabimycin, Debio-1452-NH3, and Debio-1452, and to also assess differential activity against the E. coli and A. baumannii versions of FabI. FabI from E. coli and A. baumannii were recombinantly expressed and purified, and the ability for each compound to inhibit the activity of these enzymes was evaluated using a standard FabI enzyme assay.
In vitro FabI inhibition assay. NADH (Sigma-Aldrich, Cat# N8129) and crotonoyl-CoA (Sigma-Aldrich, Cat# 28007) were both diluted into activity buffer [100 mM potassium glutamate (pH 7.8)], and working solution was dispensed into two columns of round-bottom 96-well plate (330 μL per well). Inhibitors, dissolved in DMSO at 200× final concentration, were added to each well via multichannel pipette (2.48 μL per well). After thorough mixing, this mixture was transferred to UV-transparent plate (UV-STAR half-area 96-well plate, Greiner Bio-One, Cat#675801, 100 μL per well, three technical replicates per inhibitor concentration). Plate was placed in plate-reader (SpectraMax 190, Molecular Devices) under temperature control (25° C.), and temperature was allowed to equilibrate. Fresh aliquot of enzyme from −80° C. was thawed on ice and diluted in activity buffer. Enzyme working solution was added to plate (50 μL per well, 20 nM enzyme final). After shaking for 5 s, reaction progress was monitored by absorbance at 340 nm every 15 s for 90 min. Linear portion of reaction progress curve was fit using plate-reader software (SoftMax Pro 7.0). Percent activity was calculated relative to DMSO-only and no-enzyme controls in each plate. Percent activity curves were fit to Morrison's quadratic using Graphpad Prism 6.0 to obtain apparent Ki.

The test system of a further data set is H. sapiens HFF-1. In words: In-vitro cytotoxicity. The note with it: for IC50: cytotoxicity. In kind it is cell-based.
The next data set has as its system H. sapiens A549. The data set is described as follows: In-vitro cytotoxicity. It counts as cell-based. The note with it: for IC50: cytotoxicity.
Data set [1] is described as follows: in vitro. The note with it: mouse, plasma.
The nature of data set [2]: in vitro. The note with it: human, plasma.
A further data set deals with HERG (Homo sapiens (Human), UniProt Q12809). The data set is described as follows: cell-based.
A further data set deals with E. coli FabI (Escherichia coli (strain K12), UniProt P0AEK4). The data set is described as follows: In vitro FabI inhibition assay. In kind it is biochemical. The procedure:
as §4
In vitro FabI inhibition assay. NADH (Sigma-Aldrich, Cat# N8129) and crotonoyl-CoA (Sigma-Aldrich, Cat# 28007) were both diluted into activity buffer [100 mM potassium glutamate (pH 7.8)], and working solution was dispensed into two columns of round-bottom 96-well plate (330 μL per well). […] Plate was placed in plate-reader (SpectraMax 190, Molecular Devices) under temperature control (25° C.), and temperature was allowed to equilibrate. […] After shaking for 5 s, reaction progress was monitored by absorbance at 340 nm every 15 s for 90 min. Linear portion of reaction progress curve was fit using plate-reader software (SoftMax Pro 7.0). Percent activity was calculated relative to DMSO-only and no-enzyme controls in each plate. […]

Data set [3] can be described thus: Plasma protein binding. The note with it: mouse, plasma.
The nature of data set [4]: Plasma protein binding. The note with it: human, plasma.
The next data set has as its system E. coli ATCC 25922. The data set is described as follows: MIC. It counts as cell-based. The note with it: Escherichia coli, ATCC25922; line under drawing, Table 8-1.

Chain of A. baumannii FabI (D0CAD5 1-288): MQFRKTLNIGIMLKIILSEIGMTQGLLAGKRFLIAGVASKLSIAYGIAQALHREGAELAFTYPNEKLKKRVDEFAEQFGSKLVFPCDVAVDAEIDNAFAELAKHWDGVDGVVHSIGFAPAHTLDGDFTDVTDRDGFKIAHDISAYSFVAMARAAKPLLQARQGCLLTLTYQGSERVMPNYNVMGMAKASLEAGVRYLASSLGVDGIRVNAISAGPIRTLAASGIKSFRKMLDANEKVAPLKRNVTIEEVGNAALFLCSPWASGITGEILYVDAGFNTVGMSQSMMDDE
Chain of HERG (Q12809 whole entry): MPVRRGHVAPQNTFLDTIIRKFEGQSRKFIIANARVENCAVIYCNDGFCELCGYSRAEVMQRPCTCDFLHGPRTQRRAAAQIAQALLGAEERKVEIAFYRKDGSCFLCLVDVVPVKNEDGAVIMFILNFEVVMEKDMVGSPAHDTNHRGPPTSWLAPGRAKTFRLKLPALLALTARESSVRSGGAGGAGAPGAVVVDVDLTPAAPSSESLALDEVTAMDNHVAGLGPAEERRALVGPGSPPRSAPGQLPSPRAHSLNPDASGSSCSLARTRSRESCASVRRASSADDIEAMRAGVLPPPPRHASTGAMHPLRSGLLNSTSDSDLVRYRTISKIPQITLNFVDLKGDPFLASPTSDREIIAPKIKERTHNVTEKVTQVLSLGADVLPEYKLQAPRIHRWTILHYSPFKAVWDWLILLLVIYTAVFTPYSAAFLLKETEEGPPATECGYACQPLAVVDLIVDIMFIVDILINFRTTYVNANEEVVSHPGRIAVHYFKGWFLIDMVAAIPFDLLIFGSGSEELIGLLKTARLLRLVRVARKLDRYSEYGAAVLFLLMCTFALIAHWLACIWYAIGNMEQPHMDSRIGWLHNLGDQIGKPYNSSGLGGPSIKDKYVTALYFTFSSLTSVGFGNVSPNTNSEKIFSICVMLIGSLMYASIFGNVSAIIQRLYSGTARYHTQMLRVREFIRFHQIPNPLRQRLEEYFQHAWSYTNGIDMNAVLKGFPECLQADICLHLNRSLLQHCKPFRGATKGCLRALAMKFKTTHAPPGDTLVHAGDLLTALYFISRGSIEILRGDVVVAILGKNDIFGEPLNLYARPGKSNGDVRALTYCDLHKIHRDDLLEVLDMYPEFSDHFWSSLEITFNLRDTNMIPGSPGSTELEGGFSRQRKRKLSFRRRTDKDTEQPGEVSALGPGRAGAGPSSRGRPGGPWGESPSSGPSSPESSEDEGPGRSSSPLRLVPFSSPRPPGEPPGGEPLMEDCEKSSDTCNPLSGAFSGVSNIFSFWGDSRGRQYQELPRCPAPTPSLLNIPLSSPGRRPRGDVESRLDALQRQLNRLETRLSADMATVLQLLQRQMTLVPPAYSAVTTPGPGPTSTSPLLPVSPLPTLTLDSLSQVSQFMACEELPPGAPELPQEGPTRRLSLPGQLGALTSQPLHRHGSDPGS
Chain of E. coli FabI (P0AEK4 whole entry): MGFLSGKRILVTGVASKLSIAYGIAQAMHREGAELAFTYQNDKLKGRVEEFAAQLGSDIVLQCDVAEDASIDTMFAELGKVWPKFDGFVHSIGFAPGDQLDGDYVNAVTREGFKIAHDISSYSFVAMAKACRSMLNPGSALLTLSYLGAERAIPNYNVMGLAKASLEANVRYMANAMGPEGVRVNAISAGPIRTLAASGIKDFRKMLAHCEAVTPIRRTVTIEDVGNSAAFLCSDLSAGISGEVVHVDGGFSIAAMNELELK

With `Cc1c(CN(C)C(=O)/C=C/c2cnc3c(c2)CCC(=O)N3)oc2ccccc12` [Debio-1452, (E)-N-methyl-N-((3-methylbenzofuran-2-yl)methyl)-3-(7-oxo-5,6,7,8-tetrahydro-1,8-naphthyridin-3-yl)acrylamide, reference compound], the MIC was 0.008 mg/L (≈ 0.0213 µM) with S. aureus ATCC 29213 (S. aureus ATCC 29213, read-out: MIC S. aureus 29213); over 32 mg/L in the data set on E. coli MG1655; over 32 mg/L in the data set on K. pneumoniae BAA 2472; over 32 mg/L in the data set on A. baumannii AR 0033; over 32 mg/L with A. baumannii AR 0273; over 32 mg/L in the data set with A. baumannii AR 0299. Further, the MIC with A. baumannii AR 0313, in the data set with E. coli AR 0048, in the data set with E. coli AR 0085, in the data set with K. pneumoniae AR 0066, in the data set with K. pneumoniae AR 0113 and with K. pneumoniae AR 0560 was over 32 mg/L in each case. Also, the “MIC E. coli ΔtolC” value against E. coli ΔtolC (JW5503) (efflux deficient E. coli ΔtolC) was found to be 0.062 mg/L (≈ 0.165 µM). The Ki at A. baumannii FabI (purified FabI, apparent inhibition constant, read-out: A. baumannii FabI Ki^app) worked out at 0.799 ± 0.229 µM. Moreover, the inhibition at 30 µM in the data set with H. sapiens HFF-1 came out at 18 ± 6%; with H. sapiens A549 it was 13 ± 6%. Further, the 50% inhibitory concentration (IC50) stood at 165 ± 42 µM in the data set with H. sapiens HFF-1, 166 ± 12 µM in the data set on H. sapiens A549 and 5.5 µM against HERG. Besides, the values for the fraction unbound in “in vitro [1]” and in the data set “in vitro [2]” were 0.006 and 0.019, respectively.
`Cc1c(CN(C)C(=O)/C=C/c2cnc3c(c2)CC(N)C(=O)N3)oc2ccccc12` (racemic) [Debio-1452-NH3, (E)-3-(6-amino-7-oxo-5,6,7,8-tetrahydro-1,8-naphthyridin-3-yl)-N-methyl-N-((3-methylbenzofuran-2-yl)methyl)acrylamide]: the Ki came to 0.114 µM at A. baumannii FabI and 0.0035 ± 0.0005 µM on E. coli FabI. The figures for the inhibition at 30 µM with H. sapiens HFF-1 and in the data set with H. sapiens A549 were 11 ± 2% and 29 ± 4%, respectively. Moreover, the concentration for half-maximal inhibition (IC50) was 63 ± 33 µM with H. sapiens HFF-1, 68 ± 4 µM with H. sapiens A549 and 5.7 µM at HERG. The fraction unbound in the data set “Plasma protein binding [3]” was 0.055; in the data set “Plasma protein binding [4]”, 0.107.
Consider `O=C1CCc2cc(/C=C/C(=O)N3CC4C=C(c5ccccc5)CC4C3)cnc2N1` (stereo not drawn) [reference compound], for which the MIC was 0.016 mg/L (≈ 0.0415 µM) in the data set with S. aureus ATCC 29213 (line under drawing, Table 8-1, read-out: MIC S. aureus ATCC 29213) and over 32 mg/L in the data set on E. coli ATCC 25922. For the same compound, in the data set with E. coli ΔtolC (JW5503) (line under drawing, Table 8-1), the “MIC E. coli ΔtolC mutant” value is given as “MIC E. coli ΔtolC mutant = ≤0.03 ug/mL”.
